# Measurements reported in ChEMBL document CHEMBL3507680, “University of Dundee, Gates Library screen for HepG2 cell viability”.
# Experiment: Human HepG2 cell viability assay in 384 well format
# Format: toxicity, cell-based
# Design: dose 125 nL, time 70.5 hour; cytotoxicity at 70.5 h: concentration not given beside the values
# Details: HepG2 cells, read-out: Inhibition
smiles,measurement,value
Cc1cc(C)n(-c2ccc3nnc(C)n3n2)n1,cytotoxicity at 70.5 h,18%
C[C@H](NC(=O)N1CCC(Cc2ccccc2)CC1)C(=O)O,cytotoxicity at 70.5 h,-12.5%
Cn1c2ccc(F)cc2c2ncn(CCN3CCOCC3)c(=O)c21,cytotoxicity at 70.5 h,17.4%
COc1cc(-c2nc(N)n[nH]2)cc(OC)c1OC,cytotoxicity at 70.5 h,-8.57%
CC(=O)NCCC(Cc1ccccc1)c1ccco1 (configuration not stated),cytotoxicity at 70.5 h,-13.4%
C/C(NC(=O)c1cccs1)=C1\C(=O)C[C@@H]2[C@H]1C2(C)C,cytotoxicity at 70.5 h,-10%
Cc1nc(Oc2ccccc2Cl)sc1C(=O)O,cytotoxicity at 70.5 h,-15.5%
O=C(O)CN1CCC(c2ccccc2)C1 (configuration not stated),cytotoxicity at 70.5 h,-13.6%
Cc1ccc(-c2nn(C)c(C(=O)O)c2Br)cc1,cytotoxicity at 70.5 h,-20.5%
O=C1Nc2ccccc2/C1=C1\CCCN1,cytotoxicity at 70.5 h,-1.25%
CC(=O)N1CC[C@@]2(O)CCCC[C@H]2[C@@H]1c1ccccc1,cytotoxicity at 70.5 h,-0.54%
COc1ccc2[nH]c3c(N(C)CC4OCCO4)ncnc3c2c1,cytotoxicity at 70.5 h,5.81%
C/C(NC(=O)c1ccco1)=C1/C(=O)C[C@@H]2[C@H]1C2(C)C,cytotoxicity at 70.5 h,-6.66%
CC(=O)N1CC[C@@]2(O)CCCC[C@H]2[C@@H]1c1ccc2c(c1)OCO2,cytotoxicity at 70.5 h,-1.93%
CCC[C@]12CN3C[C@](CCC)(CN(C1)C3c1[nH]c(=O)[nH]c(=O)c1C)C2=O (some centres not stated),cytotoxicity at 70.5 h,-10.7%
Cc1c(C2N3C[C@]4(C(C)C)CN2C[C@](C(C)C)(C3)C4=O)[nH]c(=O)[nH]c1=O (some centres not stated),cytotoxicity at 70.5 h,-4.97%
CCC[C@]12CN3C[C@](C)(CN(C1)C3c1[nH]c(=O)[nH]c(=O)c1C)C2=O (some centres not stated),cytotoxicity at 70.5 h,-9.33%
COc1ccc2c(ccn2CCC(=O)N[C@H](C(=O)O)C(C)C)c1,cytotoxicity at 70.5 h,-8.62%
O=C(CCC(=O)N1CCc2[nH]c3ccccc3c2C1)NCc1ccco1,cytotoxicity at 70.5 h,-8.42%
COc1ccc2c(ccn2CCC(=O)NCCC(=O)O)c1,cytotoxicity at 70.5 h,4.49%
CCOc1c(C(N)=O)cn(C)c1-c1nc2cc(NC(C)=O)ccc2n1C,cytotoxicity at 70.5 h,-19.2%
CSCC[C@H](NC(=O)CCn1ccc2c(Br)cccc21)C(=O)O,cytotoxicity at 70.5 h,-16.3%
CC[C@@H](C)[C@H](NC(=O)CCn1cc(C(C)=O)c2ccccc21)C(=O)O,cytotoxicity at 70.5 h,-6.89%
CC(=O)c1cn(CCC(=O)NCCCC(=O)O)c2ccccc12,cytotoxicity at 70.5 h,-12.2%
Cc1occc(=O)c1OCC(=O)N1CCc2ccccc2C1,cytotoxicity at 70.5 h,7.13%
CC(=O)c1cc2c(=O)[nH]c(=O)n(C)c2nc1C,cytotoxicity at 70.5 h,-9.65%
COc1cc2nc(C)n(CC(=O)NCCCO)c(=O)c2cc1OC,cytotoxicity at 70.5 h,-10.5%
COc1cc2nc(C)n(CC(=O)NCCC(C)C)c(=O)c2cc1OC,cytotoxicity at 70.5 h,-16.6%
O=C(NCCc1c[nH]cn1)c1n[nH]c2c1CCC2,cytotoxicity at 70.5 h,-8.54%
COCCn1ccc2cc(C(=O)NC3CCOC(C)(C)C3)ccc21 (configuration not stated),cytotoxicity at 70.5 h,-2.78%
COc1cc(OC)c(C2CC(=O)Oc3cc(C)[nH]c(=O)c32)cc1OC (configuration not stated),cytotoxicity at 70.5 h,-19.4%
COc1ccc(C2CC(=O)Oc3cc(C)[nH]c(=O)c32)c(OC)c1 (configuration not stated),cytotoxicity at 70.5 h,-19.2%
COC(=O)CC(c1ccc(OC)c(O)c1)c1oc(C)cc(=O)c1O (configuration not stated),cytotoxicity at 70.5 h,-2.8%
COC(=O)CC(c1ccc(O)c(Cl)c1)c1oc(C)cc(=O)c1O (configuration not stated),cytotoxicity at 70.5 h,1.45%
COC(=O)CC(c1cccnc1)c1oc(C)cc(=O)c1O (configuration not stated),cytotoxicity at 70.5 h,-16.7%
CCc1c(O)nc(SCC(=O)c2ccccc2)n(-c2ccccc2)c1=O,cytotoxicity at 70.5 h,-2.09%
O=c1[nH]cc(Nc2ccc(Cl)cc2)c(=O)[nH]1,cytotoxicity at 70.5 h,29.9%
CN(CC(=O)N1CCc2[nH]c3ccccc3c2C1)CC1OCCO1,cytotoxicity at 70.5 h,24%
Cc1cc(NCCN)nc(-c2ccccc2O)n1,cytotoxicity at 70.5 h,35.9%
CSc1c(CC(=O)O)n(C)c2ccccc12,cytotoxicity at 70.5 h,-0.594%
Cc1nn(C2CCCC2)c2c1C(c1ccc3c(c1)OCO3)SCC(=O)N2 (configuration not stated),cytotoxicity at 70.5 h,-12.2%
CSCC[C@@H](CO)NC(=O)c1sc(-c2ccccc2Cl)nc1C,cytotoxicity at 70.5 h,-16.5%
COC(=O)CCCNC(=O)N1CCc2c([nH]c3ccc(Cl)cc23)C1,cytotoxicity at 70.5 h,-6.07%
COc1ccc(CC(=O)NCCCc2nnc3nc(C)cc(C)n23)cc1,cytotoxicity at 70.5 h,-10.1%
O=C(CC1NC(N2CCc3ccccc3C2)=NC1=O)Nc1ccccc1 (configuration not stated),cytotoxicity at 70.5 h,-5.52%
CNc1oc(-c2ccc(OC)c(S(=O)(=O)N(C)C)c2)nc1C#N,cytotoxicity at 70.5 h,-9.03%
CCCn1nnc2c(sc3nc(N4CCOCC4)c4c(c32)CCC4)c1=O,cytotoxicity at 70.5 h,-21.7%
O=C(O)CCCNC(=O)N1CCc2c([nH]c3ccc(Cl)cc23)C1,cytotoxicity at 70.5 h,-7.18%
Cc1nc(-c2noc3ccc(C(=O)NCCN4CCOCC4)cc23)co1,cytotoxicity at 70.5 h,12.2%
CN(C)S(=O)(=O)N1C[C@H]2CCC[C@@]2(COCC2CC2)C1,cytotoxicity at 70.5 h,16.4%
COCC(=O)N1CC[C@@H]2O[C@@H](COCC3CCOCC3)CC[C@@H]21,cytotoxicity at 70.5 h,12.6%
Fc1cnc(N2CC[C@@H](N3CCOCC3)[C@@H]2Cc2ccccc2)nc1,cytotoxicity at 70.5 h,8.96%
CN(C)c1cccc(C(=O)N2CCc3ccc(=O)[nH]c3CC2)c1,cytotoxicity at 70.5 h,-6.59%
Cn1c2c(c(=O)n1C)CN(S(=O)(=O)c1cccs1)CCC2,cytotoxicity at 70.5 h,-5.01%
CN(C)C(=O)N1CCc2ccc(=O)[nH]c2CC1,cytotoxicity at 70.5 h,-3.89%
Cn1cc(C(=O)N2CC[C@@H]3[C@@H]2CCN3c2ccccn2)cn1,cytotoxicity at 70.5 h,-5.62%
O=C(c1ccco1)N1CC[C@@H]2O[C@H](COCC3CCOCC3)CC[C@@H]21,cytotoxicity at 70.5 h,4.34%
Cc1nc(-c2noc3ccc(C(=O)NCCN4CCOCC4)cc23)cs1,cytotoxicity at 70.5 h,-8.24%
Cc1cccc(N2CC[C@H]3[C@H]2CCN3C(=O)c2cnn(C)c2)n1,cytotoxicity at 70.5 h,-8.26%
CC(C)N1CCc2ncn(C(C)C)c2C1C(=O)NCCN1CCCC1 (configuration not stated),cytotoxicity at 70.5 h,-7.38%
Cc1nc(-c2noc3ccc(C(=O)NCCN(C)C)cc23)co1,cytotoxicity at 70.5 h,-7.57%
c1ccc(-n2cc(CNCC3CCCN3c3cccnn3)cn2)cc1 (configuration not stated),cytotoxicity at 70.5 h,-5.35%
Cc1cnn(CC2CCCN2C(=O)c2c(C)noc2C)c1 (configuration not stated),cytotoxicity at 70.5 h,-11%
CC(C)c1nn(C)c(N(C)C)c1CNCc1ccc2c(c1)OCCO2,cytotoxicity at 70.5 h,-5.83%
O=C(CCc1ccsc1)Nc1cccnc1N1CCCC1,cytotoxicity at 70.5 h,-6.9%
CN(Cc1ccco1)C(=O)Nc1cccnc1N1CCCC1,cytotoxicity at 70.5 h,-3.81%
O=C(CCNC(=O)C1CCCC1)NCc1ccccc1Cn1ccnc1,cytotoxicity at 70.5 h,-8.37%
Cc1ncsc1C(=O)NC1CCN(CCC(=O)Nc2ccccc2)CC1,cytotoxicity at 70.5 h,-1.32%
OCCn1nccc1C1CCN(CCOc2ccc(Cl)cc2)CC1,cytotoxicity at 70.5 h,-1.15%
Cc1ccc(OCCN2CCC(c3ccnn3CCO)CC2)cc1,cytotoxicity at 70.5 h,3.29%
OCCn1nccc1C1CCN(CCOc2ccccc2Cl)CC1,cytotoxicity at 70.5 h,-0.941%
OCCn1nccc1C1CCN(CCOc2ccccc2F)CC1,cytotoxicity at 70.5 h,-2.7%
COc1ccc(OCCN2CCC(c3ccnn3CCO)CC2)cc1,cytotoxicity at 70.5 h,-5.41%
CC(C)c1nn(C)c(N2CCOCC2)c1CNC(C)c1ccccn1 (configuration not stated),cytotoxicity at 70.5 h,-2.55%
Cc1cc(C)n(CC2CN(CCOc3ccccc3C#N)CCO2)n1 (configuration not stated),cytotoxicity at 70.5 h,-5.02%
N#Cc1cccc(OCCN2CCOC(Cn3cccn3)C2)c1 (configuration not stated),cytotoxicity at 70.5 h,-3.46%
Cc1nc(C(=O)N2CCCCC2)nn1-c1ccccc1Cl,cytotoxicity at 70.5 h,-7.71%
Cc1cnn(C2CCCN(C(=O)c3ccc(N4CCCC4)nn3)C2)c1 (configuration not stated),cytotoxicity at 70.5 h,1.64%
O=C(CN1CCc2cncnc2C1)NCCOc1cccc(Cl)c1,cytotoxicity at 70.5 h,-4.17%
Cc1nn(CC(C)C)c(N(C)C)c1CNCc1ccc2c(c1)OCO2,cytotoxicity at 70.5 h,-2.13%
c1ccc(-n2nnnc2CNCC2CCCN2c2cccnn2)cc1 (configuration not stated),cytotoxicity at 70.5 h,-0.967%
CC(C)c1n[nH]c(C2CN(C(=O)c3cc(Cl)c[nH]3)CCO2)n1 (configuration not stated),cytotoxicity at 70.5 h,-8.73%
Cc1cc(C(=O)N2CCOC(c3nc(C(C)C)n[nH]3)C2)no1 (configuration not stated),cytotoxicity at 70.5 h,-11.9%
CC(Cn1cccn1)NCc1nc(-c2ccccn2)no1 (configuration not stated),cytotoxicity at 70.5 h,-11.1%
c1csc(-c2noc(CNCCn3cccn3)n2)c1,cytotoxicity at 70.5 h,-4.45%
COCc1nc(C(=O)N2CCCC(n3nc(C)cc3C)C2)cs1 (configuration not stated),cytotoxicity at 70.5 h,-8.71%
O=C(CCc1ccc(Cl)s1)NCc1nnc2n1CCCCC2,cytotoxicity at 70.5 h,-15.9%
Cc1cnc2c(S(=O)(=O)NC3CCS(=O)(=O)C3)cccc2c1 (configuration not stated),cytotoxicity at 70.5 h,-8.37%
O=C(NCCN1CCOCC1)c1scnc1Cl,cytotoxicity at 70.5 h,-15.1%
COc1ccnc(N2CCN(C(=O)N3CCOCC3)CC2)n1,cytotoxicity at 70.5 h,-10.7%
Cc1nc2ccnn2c(C)c1CCC(=O)N1CCSCC1,cytotoxicity at 70.5 h,-6.09%
CC1CN(CCOc2ccccc2C#N)CCN1Cc1nccn1C (configuration not stated),cytotoxicity at 70.5 h,-12.6%
Cn1ccnc1CN1CCN(CCOc2ccccc2F)CC1,cytotoxicity at 70.5 h,-11.2%
c1ncc2c(n1)CN(Cc1nc(-c3ccsc3)no1)CC2,cytotoxicity at 70.5 h,-14.7%
Cc1nc(C)n(CC2CCCN2Cc2cccc3c2OCCO3)n1 (configuration not stated),cytotoxicity at 70.5 h,-5.55%
CC(Cn1cccn1)NCc1nc(-c2ccccc2Cl)no1 (configuration not stated),cytotoxicity at 70.5 h,-19.9%
CCC(C)[C@H](N)c1nnc(SCC(=O)Nc2ccc(C)cc2C)o1 (some centres not stated),cytotoxicity at 70.5 h,0.595%
CC(C)[C@H](N)c1nnc(SCC(=O)Nc2ccc(Br)cc2)o1,cytotoxicity at 70.5 h,-4.97%
CC(C)C[C@H](N)c1nnc(SCC(N)=O)o1,cytotoxicity at 70.5 h,24.4%
CCN1CCC2(CC1)OCCN2C(=O)c1ccc(OC)c(Cl)c1,cytotoxicity at 70.5 h,3.75%
Cc1[nH]nc2ncc(C(=O)N3CCN(CC(C)O)CC3)cc12 (configuration not stated),cytotoxicity at 70.5 h,-5.99%
COc1ccc2c(ccn2CCCN)c1,cytotoxicity at 70.5 h,-7.17%
CN(C)CCNCCC(c1ccccc1)C1CCOC(C)(C)C1 (configuration not stated),cytotoxicity at 70.5 h,-6.43%
CN1CCN(c2ccc3ccc(C(=O)N4CCCO4)cn23)CC1,cytotoxicity at 70.5 h,-9.32%
Cn1cc(C[C@H]2[C@H](N3CCOCC3)CCN2c2ncc(F)cn2)cn1,cytotoxicity at 70.5 h,3.47%
Cc1ccc(CN2C[C@@H]3[C@@H](C(=O)N4CCCC4)CCS(=O)(=O)[C@@H]3C2)cc1,cytotoxicity at 70.5 h,-1.09%
CN1CCC2(COCCN(Cc3cccc(C#N)c3)C2)C1 (configuration not stated),cytotoxicity at 70.5 h,-0.504%
COCCN1CCO[C@@H]2CN(Cc3sccc3C)C[C@@H]2C1,cytotoxicity at 70.5 h,1.15%
Fc1cnc(N2CC[C@@H](N3CCOCC3)[C@@H]2Cc2ccncc2)nc1,cytotoxicity at 70.5 h,15.9%
COCCN1CCC2(COCCN(Cc3ccc4c(c3)OCO4)C2)C1 (configuration not stated),cytotoxicity at 70.5 h,-9.54%
c1cc(CN2C[C@@H]3OCCN(CCN4CCCC4)[C@@H]3C2)co1,cytotoxicity at 70.5 h,-10.1%
Cc1csc(NCC(=O)c2c[nH]c3ccccc23)n1,cytotoxicity at 70.5 h,3.37%
